Measurements taken from US20080171783A1, “COMPOSITIONS AND METHODS FOR TREATING HYPERPROLIFERATIVE DISEASE” (Migenix Inc., priority 2006, published 2008).

Tests used:
[1] = Cytotoxicity Huh-7 cells (MTS/PMS); type: cell-based; settings: human, 3-day incubation
Procedure: Cytotoxicity of compounds for use in treating hyperproliferative diseases or disorders was tested in Huh-7 cells using tetrazolium salt MTS combined with the electron acceptor PMS in a 96-well format. Six doses of each compound was tested, starting at about 1.2 μM to 0.4 μM serially diluted in a final 1% DMSO solution in DMEM/F12 media. Terfenadine was used as a positive control. Cells were seeded at 2.5×10^5 cells/mL in each well of the 96-well plates in a final volume of 0.1 mL, and then incubated at 37° C. in the presence of 5% CO2 overnight. Compounds (in media) were added the following day and the treated cells were incubated another 3-days at 37° C. in the presence of 5% CO2. After the 3-day incubation, 20 μL of MTS/PMS (3-(4,5-dimethylthiazol-2-yl)-5-(3-carboxymethoxy-phenyl)-2-(4-sulfophenyl)-2H-tetrazolium) was added to each well. After about a one to four hour incubation of MTS/PMS at 37° C. and 5% CO2—that is, until an OD490 absorbance of ≧0.6 for the wells containing cells with media only, the level of cytotoxicity at each concentration was calculated. […] Dose response results from the cytotoxicity assay (CC50) are provided in Table 4 in comparison with IC50 data (from Table 2)

[2] = molecular target: T1, Calf polymerase alpha (Bos taurus, UniProt A0AAA9TD94); experiment: Calf polymerase alpha inhibition (Replizyme kit); type: biochemical; settings: for inhibition at 10 µM / % Inhibition: single point screening, at 10 μM; for IC50: dose response
T1 construct: purchased Replizyme Ltd (Heslington, York, UK)
T1 sequence (A0AAA9TD94 1-1441): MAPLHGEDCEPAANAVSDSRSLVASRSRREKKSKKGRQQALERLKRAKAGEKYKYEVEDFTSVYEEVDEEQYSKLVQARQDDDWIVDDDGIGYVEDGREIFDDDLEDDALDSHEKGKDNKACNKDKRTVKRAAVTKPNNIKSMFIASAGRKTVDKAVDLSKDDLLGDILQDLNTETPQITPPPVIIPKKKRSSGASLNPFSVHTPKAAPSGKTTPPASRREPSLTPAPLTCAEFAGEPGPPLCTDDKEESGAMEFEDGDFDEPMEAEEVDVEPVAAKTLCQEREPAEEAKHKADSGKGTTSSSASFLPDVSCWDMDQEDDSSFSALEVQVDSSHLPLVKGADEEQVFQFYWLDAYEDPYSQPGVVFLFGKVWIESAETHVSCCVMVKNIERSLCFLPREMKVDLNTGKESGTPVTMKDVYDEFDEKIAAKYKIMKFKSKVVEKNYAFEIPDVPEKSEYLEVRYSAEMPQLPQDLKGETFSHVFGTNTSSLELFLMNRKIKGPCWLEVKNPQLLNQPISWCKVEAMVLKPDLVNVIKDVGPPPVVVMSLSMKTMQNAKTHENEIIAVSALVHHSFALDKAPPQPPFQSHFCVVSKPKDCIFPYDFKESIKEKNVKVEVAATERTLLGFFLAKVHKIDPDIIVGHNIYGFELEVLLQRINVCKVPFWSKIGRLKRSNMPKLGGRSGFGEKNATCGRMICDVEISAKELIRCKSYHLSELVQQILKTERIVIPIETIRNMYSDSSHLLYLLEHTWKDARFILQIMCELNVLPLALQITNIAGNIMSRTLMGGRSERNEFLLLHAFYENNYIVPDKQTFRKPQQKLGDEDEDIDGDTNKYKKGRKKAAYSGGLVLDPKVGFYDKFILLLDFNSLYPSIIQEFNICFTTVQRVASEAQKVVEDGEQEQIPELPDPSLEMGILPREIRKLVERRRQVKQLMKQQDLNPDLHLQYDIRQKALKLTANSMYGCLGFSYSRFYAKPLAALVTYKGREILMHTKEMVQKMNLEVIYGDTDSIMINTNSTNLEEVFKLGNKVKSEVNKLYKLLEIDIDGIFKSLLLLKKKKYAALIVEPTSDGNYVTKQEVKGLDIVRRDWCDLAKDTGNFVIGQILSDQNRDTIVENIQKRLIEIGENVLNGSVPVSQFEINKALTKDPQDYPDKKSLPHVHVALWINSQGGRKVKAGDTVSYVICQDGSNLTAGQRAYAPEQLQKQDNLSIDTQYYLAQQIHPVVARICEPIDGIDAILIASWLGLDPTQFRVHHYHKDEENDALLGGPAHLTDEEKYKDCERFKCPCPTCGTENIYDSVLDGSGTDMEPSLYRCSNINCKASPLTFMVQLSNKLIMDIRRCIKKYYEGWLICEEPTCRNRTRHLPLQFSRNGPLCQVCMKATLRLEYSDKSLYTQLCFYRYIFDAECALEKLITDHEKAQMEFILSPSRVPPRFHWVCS
Procedure: Calf polymerase alpha and human polymerase alpha investigations were performed with a kit available from Replizyme Ltd (Heslington, York, UK).

[3] = test system: 5 Leukemia and 5 Colon Cancer Cell Lines; experiment: Cell viability by XTT, cell line panel; type: cell-based; settings: for ARF (Average Response Factor, Average Percentage of Control) / Range (Percentage of Control over the same 10 cell lines): 10 μM; for ARF (Average Response Factor, Average Percentage of Control) / viability at 10 µM: average of the ten Percentage of Control values; for Range (Percentage of Control over the same 10 cell lines): lowest to highest of the ten cell lines; for viability at 10 µM: read-out: ARF (Average Response Factor, Average Percentage of Control)
Procedure: Compounds were solubilized at […] in DMSO and were stored at −20° C. Test compounds were initially tested at a single concentration of 10 μM and a subset of test compounds were further tested in selected cell lines using a six concentration dose response curve.
Cell Preparation Cancer cell lines were passaged in T-75 flasks prior to use in the assay in cell culture medium recommended by the ATCC (American Type Culture Collection; Table 6). On the day preceding the assay, the cells were split 1:2 to assure they were in an exponential growth phase at the time of compound treatment. Total cell and viability quantification was performed using a hemocytometer and Trypan Blue dye exclusion. […] The cells were resuspended at the appropriate cell per mL (Table 6) in tissue culture medium and added to the microtitre plates in a volume of 100 μL. Colon cell lines were incubated overnight at 37° C./5% CO2 to allow for cell adherence to the plates.
Plate Format: Each plate contains cell control wells (cells only), drug calorimetric control wells (drug only) as well as experimental wells (drug plus cells). Samples were tested in triplicate at a concentration of 10 μM and five half-logarithmic dilutions.
Cell Viability by XTT: Following incubation at 37° C. in a 5% CO2 incubator for four days, the test plates were stained with the tetrazolium dye XTT (2,3-bis(2-methoxy-4-nitro-5-sulfophenyl)-5-[(phenylamino)carbonyl]-2H-tetrazolium hydroxide). XTT-tetrazolium was metabolized by the mitochondrial enzymes of metabolically active cells to a soluble formazan product. XTT solution was prepared daily as a stock of 1 mg/mL in RPMI1640. Phenazine methosulfate (PMS) solution was prepared at 0.15 mg/mL in phosphate buffered saline (PBS) and stored in the dark at −20° C. XTT/PMS stock was prepared immediately before use by adding 40 μL of PMS per mL of XTT solution. Fifty (50) microlitres of XTT/PMS was added to each well of the plate and the plate was reincubated for 4 hours at 37° C. Plates were sealed with adhesive plate sealers and shaken gently or inverted several times to mix the soluble formazan product and the plate was read spectrophotometrically at 450/650 nm with a Molecular Devices Vmax plate reader. […] An Average Response Factor (ARF) was calculated for each compound by averaging the ten Percentage of Control values for the cell lines. […] Deviations below 100% control indicate activity. The concentration of each tested compound is 10 μM.

| Structure (SMILES) | CC50 at 3 days [1] [µM] | inhibition at 10 µM [2] [%] | IC50 [2] [µM] | ARF (Average Response Factor, Average Percentage of Control) [3] [%] | Range (Percentage of Control over the same 10 cell lines) [3] [%] | % Inhibition [2] [%] | viability at 10 µM [3] [%] |
| --- | --- | --- | --- | --- | --- | --- | --- |
| Cc1ccc(NC(=O)[C@@H](CCCCN)NC(=O)Nc2ccc(OCc3ccccc3)cc2)cc1 [Compound 172, (R)-6-AMINO-2-[3-(4-BENZYLOXY-PHENYL)-UREIDO]-HEXANOIC ACID P-TOLYLAMIDE] | 26 | 60 | 7.3 |  |  |  |  |
| Cc1ccc(NC(=O)[C@H](CCCCN)NC(=O)Nc2cccc(Cc3ccccc3)c2)cc1 [Compound 212, (S)-6-AMINO-2-[3-(3-BENZYL-PHENYL)-UREIDO]-HEXANOIC ACID P-TOLYLAMIDE] |  |  |  | 94.2 | 52.7 to 118.6 | 97 |  |
| NCCCC[C@H](NC(=O)OCC1c2ccccc2-c2ccccc21)C(=O)Nc1ccc(CN)cc1 [Compound 228, (S)-[5-AMINO-1-(4-AMINOMETHYL-PHENYLCARBAMOYL)-PENTYL]-CARBAMIC ACID 9H-FLUOREN-9-YLMETHYL ESTER] | 36.7 |  | 5.5 |  |  |  |  |
| Cc1ccc(NC(=O)C[C@H](CCCCN)NC(=O)Nc2ccc3c(c2)Cc2ccccc2-3)cc1 [Compound 247, (S)-7-AMINO-3-[3-(9H-FLUOREN-2-YL)-UREIDO]-HEPTANOIC ACID P-TOLYLAMIDE] |  |  |  | 85.6 | 28.5 to 104.3 | 87 |  |
| CC1CCC(NC(=O)[C@H](CCCCN)NC(=O)Nc2ccc(OCc3ccccc3)cc2)CC1 (stereo partly drawn) [Compound 264, (S)-6-AMINO-2-[3-(4-BENZYLOXY-PHENYL)-UREIDO]-HEXANOIC ACID (4-METHYL-CYCLOHEXYL)-AMIDE] | 26.6 | 41 | 16 |  |  | 35 |  |
| NCc1ccc(NC(=O)[C@@H](NC(=O)Nc2ccc(OCc3ccccc3)cc2)c2ccccc2)cc1 [Compound 305, (S)—N-(4-AMINOMETHYL-PHENYL)-2-[3-(4-BENZYLOXY-PHENYL)-UREIDO]-2-PHENYL-ACETAMIDE] |  | 104 |  |  | 30.9 to 105.9 |  | 79.5 |
| NCCCCCCNC(=O)[C@@H](NC(=O)Nc1ccc(OCc2ccccc2)cc1)c1ccccc1 [Compound 319, (S)—N-(6-AMINO-HEXYL)-2-[3-(4-BENZYLOXY-PHENYL)-UREIDO]-2-PHENYL-ACETAMIDE] |  | 71 |  |  | 80.0 to 116.4 |  | 95.6 |
| NCCCC[C@H](NC(=O)Nc1ccc(OCc2ccccc2)cc1)C(=O)Nc1cccc2c1CCC2 [Compound 321, (S)-6-AMINO-2-[3-(4-BENZYLOXY-PHENYL)-UREIDO]-HEXANOIC ACID INDAN-4-YLAMIDE] |  | 101 |  |  | 55.9 to 109.3 |  | 88 |
| NCCCCN(CC(=O)Nc1ccc(C2CCCCC2)cc1)C(=O)Nc1ccc(C=Cc2ccccc2)cc1 [Compound 324, 2-[1-(4-AMINO-BUTYL)-3-(4-STYRYL-PHENYL)-UREIDO]-N-(4-CYCLOHEXYL-PHENYL)-ACETAMIDE] |  | 92.5 |  |  | 69.3 to 109.9 |  | 95.8 |
| Cc1ccc(NC(=O)[C@H](CCCCN)NC(=O)CNc2ccccc2Oc2ccccc2)cc1 [Compound 366, (S)-6-AMINO-2-[2-(2-PHENOXY-PHENYLAMINO)-ACETYLAMINO]-HEXANOIC ACID P-TOLYLAMIDE] |  |  |  | 100.4 | 64.8 to 121.1 | 100 |  |
| Cc1ccc(NC(=O)[C@H](CCCCN)NC(=O)CNc2ccc(Oc3ccccc3)cc2)cc1 [Compound 368, (S)-6-AMINO-2-[2-(4-PHENOXY-PHENYLAMINO)-ACETYLAMINO]-HEXANOIC ACID P-TOLYLAMIDE] | 58 |  | 6 |  |  |  |  |
